Laboratory results taken from US20220370406A1, “METHOD OF TREATING STIMULANT USE DISORDER USING A COMBINATION OF TOPIRAMATE AND PHENTERMINE” (University of Kentucky Research Foundation, priority 2019, published 2022).
Read-outs that look alike come from different tables or passages of the source.

Columns and labels:
[1] = test system: participants with cocaine use disorder; assay: Experimental sessions: subjective effects questionnaires after cocaine sampling dose during maintenance; details: for subjective effects of cocaine: maintenance on the drug alone; for cocaine-increased ratings of High, Like Drug, Active-Alert-Energetic, Rush and Stimulant Subscale: maintenance on topiramate and phentermine, alone or combined
[2] = test system: participants with cocaine use disorder; assay: Experimental sessions: cardiovascular measures after cocaine sampling dose during maintenance; details: maintenance on the drug alone
[3] = test system: participants with cocaine use disorder; assay: Cocaine self-administration on progressive-ratio task during topiramate-phentermine maintenance; type: in vivo, human
Experimental: The maintenance period for each condition was at least seven (7) days. Participants randomized to 50 or 100 mg/day topiramate initially received 12.5 and 25 mg immediate release topiramate, respectively, twice daily (0700 and 1900 hours) for three (3) days. Participants then received their target dose (i.e., 25 and 50 mg BID, respectively) for four (4) days prior to completing the first block of experimental sessions. This dosing regimen allowed participants to acclimate to a lower topiramate dose before receiving their target dose and was the rationale for topiramate being a between-subject variable. Participants randomized to placebo were also maintained for seven (7) days to maintain the study blind, but their capsules contained only cornstarch.
Phentermine (0, 15, 30 mg) was administered once daily at 0700 hours. Within each topiramate cohort, the phentermine doses were tested in ascending order such that the lower dose (15 mg/day) was tested prior to the higher dose (30 mg/day). This dosing sequence was violated twice due to oversight (i.e., one subject in the 0 mg/day topiramate group and the other in the 50 mg/day topiramate group). Both of these participants were initially maintained on 30 mg/day phentermine.
After at least seven (7) days of maintenance on the first topiramate-phentermine condition, participants completed a block of three experimental sessions described below. Maintenance on the assigned condition continued during each block of experimental sessions. Upon completion of the first block of experimental sessions, participants continued maintenance on the assigned topiramate condition, while the phentermine dose was changed to the next condition. Maintenance on the second topiramate-phentermine condition also lasted at least seven (7) days before the next block of experimental sessions was completed. […]
The reinforcing effects of cocaine during maintenance on the topiramate-phentermine combinations were assessed using a progressive-ratio task. […]

[4] = test system: participants with cocaine use disorder; details: in vivo

Row | SMILES | subjective effects of cocaine [1] | cocaine-increased ratings of High, Like Drug, Active-Alert-Energetic, Rush and Stimulant Subscale [1] | cardiovascular effects of cocaine [2] | cocaine self-administration ([3]; Phentermine alone) | reinforcing effects of cocaine ([3]; maintenance on the drug alone) | reduction of cocaine self-administration ([3]; cocaine 40 mg, Topiramate alone (100 mg/day)) | cardiovascular effects of cocaine [4]
1 | CC(C)(N)Cc1ccccc1 [phentermine] | did not significantly alter | did not significantly alter | did not significantly alter | did not significantly reduce | did not significantly alter |  | 
2 | CC1(C)O[C@@H]2[C@@H](CO[C@@]3(COS(N)(=O)=O)OC(C)(C)O[C@@H]23)O1 [topiramate] | did not alter | did not significantly alter |  |  |  | 47% | did not alter
